This assay relates to LpxC enzyme. Kind of assay: LpxC enzyme assay (RapidFire high-throughput mass spectrometry). In kind it is biochemical. The essentials:
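0.2 nM enzyme with 1.0 μM UDP-3-O-(R-3-hydroxymyristoyl)-N-acetylglucosamine in 25 mM HEPES pH 7.3, 150 mM NaCl, 2.0 mM DTT, 0.01% BSA, 2% DMSO; 60 min at room temperature, quenched with HCl. Substrate and product quantified by RapidFire mass spectrometry; percent conversion gives percent inhibition versus DMSO control.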

Where [1] appears, read: concentration 0.10 (unit not given).
[2] abbreviates: concentration 0.20 (unit not given).
Setting [3] is: concentration 0.39 (unit not given).
[4] abbreviates: concentration 0.78 (unit not given).
[5] abbreviates: concentration 1.56 (unit not given).
Setting [6] is: concentration 3.13 (unit not given).
[7] abbreviates: concentration 6.25 (unit not given).
Setting [8] is: concentration 12.50 (unit not given).
Setting [9] is: concentration 25 (unit not given).
Setting [10] is: concentration 50 (unit not given).

As for `CN(C)C(=O)[C@H](O)[C@@H](O)C(=O)Nc1ccccc1C#Cc1ccccc1` [Compound 80], the “LpxC enzyme assay rating (% inhibition at indicated concentrations)” value is on record as “C (less than 10% inhibition)” under setting [1]; “C (less than 10% inhibition)” under setting [2]; “C (less than 10% inhibition)” under setting [3]; “C (less than 10% inhibition)” under setting [4]; “C (less than 10% inhibition)” under setting [5]; “C (less than 10% inhibition)” under setting [6]. Besides, the “LpxC enzyme assay rating (% inhibition at indicated concentrations)” value runs as follows: under setting [7], “C (less than 10% inhibition)”; under setting [8], “B (10-30% inhibition)”; under setting [9], “C (less than 10% inhibition)”.
`CN(C)C(=O)[C@H](O)[C@@H](O)C(=O)Nc1ccc(N2CCOCC2)cc1` [Compound 54]: the “LpxC enzyme assay rating (% inhibition at indicated concentrations)” value under setting [1] was “C (less than 10% inhibition)”; the “LpxC enzyme assay rating (% inhibition at indicated concentrations)” value under setting [2] is listed as “C (less than 10% inhibition)”; the “LpxC enzyme assay rating (% inhibition at indicated concentrations)” value under setting [3] is listed as “C (less than 10% inhibition)”; the “LpxC enzyme assay rating (% inhibition at indicated concentrations)” value under setting [4] is recorded as “C (less than 10% inhibition)”; the “LpxC enzyme assay rating (% inhibition at indicated concentrations)” value under setting [5] is reported as “C (less than 10% inhibition)”; the “LpxC enzyme assay rating (% inhibition at indicated concentrations)” value under setting [6] is “B (10-30% inhibition)”. For the same compound, the “LpxC enzyme assay rating (% inhibition at indicated concentrations)” value by setting is: under setting [7], “C (less than 10% inhibition)”; under setting [8], “C (less than 10% inhibition)”; under setting [9], “C (less than 10% inhibition)”; under setting [10], “C (less than 10% inhibition)”.
In the case of `CN(C)C(=O)[C@H](O)[C@@H](O)C(=O)N1CCC(c2ccc(C(F)(F)F)cc2)CC1` [Compound 51], the “LpxC enzyme assay rating (% inhibition at indicated concentrations)” value under setting [1] was “B (10-30% inhibition)”; the “LpxC enzyme assay rating (% inhibition at indicated concentrations)” value under setting [2] is given as “C (less than 10% inhibition)”; the “LpxC enzyme assay rating (% inhibition at indicated concentrations)” value under setting [3] was “C (less than 10% inhibition)”; the “LpxC enzyme assay rating (% inhibition at indicated concentrations)” value under setting [4] is “C (less than 10% inhibition)”; the “LpxC enzyme assay rating (% inhibition at indicated concentrations)” value under setting [5] is reported as “B (10-30% inhibition)”; the “LpxC enzyme assay rating (% inhibition at indicated concentrations)” value under setting [6] is recorded as “C (less than 10% inhibition)”. The “LpxC enzyme assay rating (% inhibition at indicated concentrations)” value was “C (less than 10% inhibition)” under setting [7], “C (less than 10% inhibition)” under setting [8], “B (10-30% inhibition)” under setting [9] and “B (10-30% inhibition)” under setting [10].
On to `O=C(Nc1ccc(-c2ccccc2)cc1)[C@H](O)[C@@H](O)C(=O)N1CCCC1` [Compound 64], for which the “LpxC enzyme assay rating (% inhibition at indicated concentrations)” value by setting is: under setting [1], “B (10-30% inhibition)”; under setting [2], “B (10-30% inhibition)”; under setting [3], “C (less than 10% inhibition)”; under setting [4], “B (10-30% inhibition)”; under setting [5], “C (less than 10% inhibition)”; under setting [6], “B (10-30% inhibition)”. The “LpxC enzyme assay rating (% inhibition at indicated concentrations)” value under setting [7] was “B (10-30% inhibition)”, the “LpxC enzyme assay rating (% inhibition at indicated concentrations)” value under setting [8] is “B (10-30% inhibition)”, the “LpxC enzyme assay rating (% inhibition at indicated concentrations)” value under setting [9] is reported as “B (10-30% inhibition)” and the “LpxC enzyme assay rating (% inhibition at indicated concentrations)” value under setting [10] is reported as “B (10-30% inhibition)”.
With `O=C(Nc1ccc(-c2cc[nH]n2)cc1)[C@H](O)[C@@H](O)C(=O)N1CCCC1` [Compound 76], the “LpxC enzyme assay rating (% inhibition at indicated concentrations)” value runs as follows: under setting [1], “C (less than 10% inhibition)”; under setting [2], “C (less than 10% inhibition)”; under setting [3], “C (less than 10% inhibition)”; under setting [4], “C (less than 10% inhibition)”; under setting [5], “B (10-30% inhibition)”; under setting [6], “C (less than 10% inhibition)”. Besides, the “LpxC enzyme assay rating (% inhibition at indicated concentrations)” value was “B (10-30% inhibition)” under setting [7], “C (less than 10% inhibition)” under setting [8], “C (less than 10% inhibition)” under setting [9] and “C (less than 10% inhibition)” under setting [10].
With `CN(C)C(=O)[C@H](O)[C@@H](O)C(=O)N1CCC(c2ccc3ccccc3c2)CC1` [Compound 52], the “LpxC enzyme assay rating (% inhibition at indicated concentrations)” value reads like this: under setting [1], “C (less than 10% inhibition)”; under setting [2], “C (less than 10% inhibition)”; under setting [3], “C (less than 10% inhibition)”; under setting [4], “C (less than 10% inhibition)”; under setting [5], “C (less than 10% inhibition)”; under setting [6], “C (less than 10% inhibition)”. For the same compound, the “LpxC enzyme assay rating (% inhibition at indicated concentrations)” value under setting [7] was “B (10-30% inhibition)”, the “LpxC enzyme assay rating (% inhibition at indicated concentrations)” value under setting [8] was “B (10-30% inhibition)”, the “LpxC enzyme assay rating (% inhibition at indicated concentrations)” value under setting [9] is given as “B (10-30% inhibition)” and the “LpxC enzyme assay rating (% inhibition at indicated concentrations)” value under setting [10] is recorded as “A (greater than 30% inhibition)”.
Consider `CN(C)C(=O)[C@H](O)[C@@H](O)C(=O)Nc1ccc(-n2cccn2)cc1` [Compound 58], for which the “LpxC enzyme assay rating (% inhibition at indicated concentrations)” value reads like this: under setting [1], “C (less than 10% inhibition)”; under setting [2], “B (10-30% inhibition)”; under setting [3], “C (less than 10% inhibition)”; under setting [4], “B (10-30% inhibition)”; under setting [5], “C (less than 10% inhibition)”; under setting [6], “B (10-30% inhibition)”. In addition, the “LpxC enzyme assay rating (% inhibition at indicated concentrations)” value is, setting by setting: under setting [7], “B (10-30% inhibition)”; under setting [8], “B (10-30% inhibition)”; under setting [9], “C (less than 10% inhibition)”; under setting [10], “B (10-30% inhibition)”.
For the compound `CNC(=O)[C@H](O)[C@@H](O)C(=O)N1CCN(c2cccc(-c3ccccc3)c2)CC1` [Compound 31], the “LpxC enzyme assay rating (% inhibition at indicated concentrations)” value is, setting by setting: under setting [1], “C (less than 10% inhibition)”; under setting [2], “B (10-30% inhibition)”; under setting [3], “C (less than 10% inhibition)”; under setting [4], “B (10-30% inhibition)”; under setting [5], “B (10-30% inhibition)”; under setting [6], “B (10-30% inhibition)”. For the same compound, the “LpxC enzyme assay rating (% inhibition at indicated concentrations)” value under setting [7] is recorded as “C (less than 10% inhibition)”, the “LpxC enzyme assay rating (% inhibition at indicated concentrations)” value under setting [8] was “B (10-30% inhibition)”, the “LpxC enzyme assay rating (% inhibition at indicated concentrations)” value under setting [9] is on record as “B (10-30% inhibition)” and the “LpxC enzyme assay rating (% inhibition at indicated concentrations)” value under setting [10] was “B (10-30% inhibition)”.
As for `CN1CCN(c2ccc(NC(=O)[C@H](O)[C@@H](O)C(=O)N3CCCC3)cc2)CC1` [Compound 72], the “LpxC enzyme assay rating (% inhibition at indicated concentrations)” value by setting is: under setting [1], “B (10-30% inhibition)”; under setting [2], “C (less than 10% inhibition)”; under setting [3], “C (less than 10% inhibition)”; under setting [4], “C (less than 10% inhibition)”; under setting [5], “C (less than 10% inhibition)”; under setting [6], “C (less than 10% inhibition)”. In addition, the “LpxC enzyme assay rating (% inhibition at indicated concentrations)” value runs as follows: under setting [7], “C (less than 10% inhibition)”; under setting [8], “C (less than 10% inhibition)”; under setting [9], “C (less than 10% inhibition)”; under setting [10], “B (10-30% inhibition)”.
Take `O=C([C@H](O)[C@@H](O)C(=O)N1CCC(c2ccc(C(F)(F)F)cc2)CC1)N1CCCC1` [Compound 69]: the “LpxC enzyme assay rating (% inhibition at indicated concentrations)” value is on record as “C (less than 10% inhibition)” under setting [1]; “C (less than 10% inhibition)” under setting [2]; “C (less than 10% inhibition)” under setting [3]; “C (less than 10% inhibition)” under setting [4]; “C (less than 10% inhibition)” under setting [5]; “C (less than 10% inhibition)” under setting [6]. The “LpxC enzyme assay rating (% inhibition at indicated concentrations)” value runs as follows: under setting [7], “C (less than 10% inhibition)”; under setting [8], “C (less than 10% inhibition)”; under setting [9], “C (less than 10% inhibition)”; under setting [10], “C (less than 10% inhibition)”.
